Where two headings read alike, the source gives them in different places.
Tested on: PLR3
Assay: light-based bioluminescence assay
Assay type: biochemical, Photinus pyralis
Details: pH 7.4

SMILES	Km (read-out: Km (μM) / LH2, co-substrate Mg-ATP, O2) [µM]	Km (read-out: Km (μM) / Mg-ATP, co-substrate LH2, O2, Mg complex) [µM]
O=C(O)[C@H]1CSC(c2nc3ccc(O)cc3s2)=N1 [LH2]	17 ± 3	–
Nc1ncnc2c1ncn2[C@@H]1O[C@H](COP(=O)(O)OP(=O)(O)OP(=O)(O)O)[C@@H](O)[C@H]1O [Mg-ATP]	–	12 ± 2
